Reference: patent US6352988B2, “Indane or dihydroindole derivatives” (H. Lundbeck A/S, priority 1996, dated 2002)
Structures can show the parent of a compound that is named as a salt.

Tests used:
[1] = molecular target: T1, dopamine D4 receptors in cloned human dopamine receptor subtype 4.2 membranes (Homo sapiens, UniProt P21917, DEL271-302); assay: 3H-YM-09151-2 binding (affinity for dopamine D4 receptors); conditions: 3H-YM-09151-2, cloned human D4.2 membranes; for IC50: * means that the test result is preliminary, read-out: D4-bind. IC50; for inhibition at 0.05 µM: at 50 nM, read-out: D4-bind. % inhibition of binding at 50 nM
T1 sequence (P21917 with tags, fused parts or gaps DEL271-302): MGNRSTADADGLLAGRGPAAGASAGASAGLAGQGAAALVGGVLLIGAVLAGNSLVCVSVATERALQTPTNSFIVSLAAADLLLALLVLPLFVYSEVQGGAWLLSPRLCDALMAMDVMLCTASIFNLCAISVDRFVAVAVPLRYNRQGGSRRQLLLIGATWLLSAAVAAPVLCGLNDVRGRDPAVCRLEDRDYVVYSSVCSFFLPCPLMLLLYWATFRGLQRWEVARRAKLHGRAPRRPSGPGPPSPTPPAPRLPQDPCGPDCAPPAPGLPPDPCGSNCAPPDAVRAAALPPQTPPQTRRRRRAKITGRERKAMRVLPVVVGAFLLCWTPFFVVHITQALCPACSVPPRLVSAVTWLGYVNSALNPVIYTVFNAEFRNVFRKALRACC
Procedure: By this method the inhibition by drugs of the binding of the dopamine D4 antagonist ^3H-YM-09151-2 to dopamine D4 receptors in cloned human dopamine receptor subtype 4.2 membranes is determined in vitro. Accordingly, this is a test for affinity for dopamine D4 receptors. The test is performed using a preparation of cloned dopamine D4 cell membranes CRM-016®, Dupharma A/S, Denmark, in accordance with the product specifications.

SMILES | melting point | IC50 [1] | inhibition at 0.05 µM [1]
Clc1ccc2c(C3=CCN(CCCC4Cc5ccccc5C4)CC3)c[nH]c2c1 [Compound 11h, 6-Chloro-3-[1-[3-(indan-2-yl)propan-1-yl]-1,2,3,6-tetrahydropyridin-4-yl]-1H-indole] | 176 to 177 °C | 24 nM | –
Clc1ccc2c(C3=CCN(CCCCC4CCc5ccccc54)CC3)c[nH]c2c1 (centres unmarked) (as salt: oxalate) [Compound 8h] | 191 to 192 °C | – | –
Clc1ccc2c(C3CCN(CCCCC4Cc5ccccc5C4)CC3)c[nH]c2c1 [Compound 21h, 6-Chloro-3-[1-[4-(indan-2-yl)butan-1-yl]piperidin-4-yl]-1H-indole] | 139 to 140 °C | 14 nM | –
CC(=O)Nc1ccc2c(c1)C(CCN1CC=C(c3c[nH]c4cc(Cl)ccc34)CC1)CC2 (centres unmarked) (as salt: oxalate) [Compound 18c] | 153 to 155 °C | – | –
Clc1ccc2c(C3CCN(CCCC4Cc5ccccc5C4)CC3)c[nH]c2c1 [Compound 21g, 6Chloro-3-[1-[3-(indan-2-yl)propan-1-yl]piperidin-4-yl]-1H-indole] | 134 to 135 °C | 7.2 nM | –
CC(C)Oc1cccc2c1CC(CN1CCC(c3c[nH]c4ccc(F)cc34)CC1)C2 (centres unmarked) (as salt: oxalate) | 181 to 189 °C | – | –
Fc1ccc2[nH]cc(C3=CCN(CCCCC4CCc5ccccc54)CC3)c2c1 (centres unmarked) [Compound 8d, 5-Fluoro-3-[1-[4-(indan-1-yl)butan-1-yl]-1,2,3,6-tetrahydropyridin-4-yl]-1H-indole] | 172 to 176 °C | 20 nM | –
c1ccc2c(c1)CC(CN1CCC(c3c[nH]c4cc5c(cc34)OCO5)CC1)C2 [Compound 21e, 3-[1-(Indan-2-ylmethyl)piperidin-4-yl]-5,6-methylenedioxy-1H-indole] | 187 to 188 °C | 23 nM | –
CC(=O)Nc1ccc2c(c1)CC(CN1CCC(c3c[nH]c4cc(Cl)ccc34)CC1)C2 (centres unmarked) | 151 to 152 °C | – | –
CC(=O)Nc1ccc2c(c1)CCC2CN1CC=C(c2c[nH]c3cc(Cl)ccc23)CC1 (centres unmarked) (as salt: fumarate) [Compound 6d, 6-Chloro-3-[1-(5-acetylamino-1-indanylmethyl)-1,2,3,6-tetrahydropyridin-4-yl]-1H-indole] | 241 to 242 °C | – | –
Clc1ccc2c(C3CCN(CC4Cc5ccccc5C4)CC3)c[nH]c2c1Cl [Compound 21d, 6,7-Dichloro-3-[1-(indan-2-ylmethyl)piperidin-4-yl]-1H-indole] | 141 to 142 °C | 3.9 nM | –
CC(=O)N1CC(CCN2CC=C(c3c[nH]c4cc(Cl)ccc34)CC2)c2ccccc21 (single isomer, unassigned; (-)) [Compound 34b] | 168 to 169 °C | 24 nM | –
CC(=O)N1CC(CCCN2CC=C(c3c[nH]c4cc(Cl)ccc34)CC2)c2ccccc21 (centres unmarked) (as salt: oxalate) [Compound 20k, 3-[1-[3-(1-Acetyl-2,3-dihydro-1H-indol-3-yl)propyl]-1,2,3,6-tetrahydropyridin-4-yl]-6-chloro-1H-indole] | 112 to 115 °C | – | –
c1ccc2c(c1)CC(CCN1CCN(c3ccc4[nH]ccc4c3)CC1)C2 (as salt: hydrochloride) [Compound 25b, 5-[4-[2-(Indan-2-yl)ethyl]piperazin-1-yl]-1H-indole] | 251 to 253 °C | – | –
Clc1ccc2c(C3CCN(CCCCC4CCc5ccccc54)CC3)c[nH]c2c1 (centres unmarked) (as salt: oxalate) [Compound 8f, 6-Chloro-3-[1-[4-(indan-1-yl)butan-1-yl)-piperidin-4-yl]-1H-indole] | 206 to 208 °C | – | –
Clc1ccc2c(C3=CCN(CCC4Cc5ccccc5C4)CC3)c[nH]c2c1 [Compound 11g, 6-Chloro-3-[1-[2-(indan-2-yl)ethyl]-1,2,3,6-tetrahydropyridin-4-yl]-1H-indole] | 217 to 218 °C | 12 nM | –
C1=C(c2cc3ccccc3[nH]2)CCN(CCC2Cc3ccccc3C2)C1 [Compound 28c, 2-[1-[2-(Indan-2-yl)ethyl]-1,2,3,6-tetrahydropyridin-4-yl]-1H-indole] | 175 to 176 °C | 13 nM | –
Clc1cccc2c(C3=CCN(CC4Cc5ccccc5C4)CC3)c[nH]c12 (as salt: oxalate) [Compound 11c, 7-Chloro-3-[1-(indan-2-yl)methyl-1,2,3,6-tetrahydropyridin-4-yl]-1H-indole] | 135 to 136 °C | – | –
C1=C(c2c[nH]c3cc4c(cc23)OCO4)CCN(CC2Cc3ccccc3C2)C1 [Compound 11e, 3-[1-(Indan-2-yl)methyl-1,2,3,6-tetrahydropyridin-4-yl]-5,6-methylenedioxy-1H-indole] | 192 to 193 °C | 16 nM | –

SMILES | melting point | IC50 [1] | inhibition at 0.05 µM [1]
Clc1ccc2c(C3CCN(CCC4Cc5ccccc5C4)CC3)c[nH]c2c1 [Compound 21f, 6-Chloro-3-[1-[2-(indan-2-yl)ethyl]piperidin-4-yl]-1H-indole] | 155 to 156 °C | 3.2 nM | –
Clc1ccc2c(C3=CCN(CCCCC4Cc5ccccc5C4)CC3)c[nH]c2c1 [Compound 11i, 6-Chloro-3-[1-[4-(indan-2-yl)butan-1-yl]-1,2,3,6-tetrahydropyridin-4-yl]-1H-indole] | 211 to 214 °C | – | 37%
CC(=O)Nc1cccc2c1CCC2CN1CC=C(c2c[nH]c3cc(Cl)ccc23)CC1 (centres unmarked) [Compound 6c] | 189 to 190 °C | 12 nM | –
CC(=O)Nc1ccc2c(c1)C(CCCN1CC=C(c3c[nH]c4cc(Cl)ccc34)CC1)CC2 (centres unmarked) (as salt: oxalate) [Compound 18d, 6-Chloro-3-[1-[3-(6-acetylaminoindan-1-yl)propan-1-yl]-1,2,3,6-tetrahydropyridin-4-yl]-1H-indole] | 110 to 115 °C | – | –
c1ccc2c(c1)CC(CN1CCN(c3ccc4[nH]ccc4c3)CC1)C2 (as salt: hydrochloride) [Compound 11f, 5-[4-(Indan-2-yl)methylpiperazin-1-yl]-1H-indole] | 263 to 265 °C | – | –
Clc1ccc2c(C3=CCN(CC4Cc5ccccc5C4)CC3)c[nH]c2c1Cl [Compound 11d, 6,7-Dichloro-3-[1-(indan-2-yl)methyl-1,2,3,6-tetrahydropyridin-4-yl]-1H-indole] | 151 to 152 °C | 27 nM | –
CC(=O)Nc1ccc2c(c1)C(CCCCN1CC=C(c3c[nH]c4cc(Cl)ccc34)CC1)CC2 (centres unmarked) (as salt: oxalate) [Compound 18e, 6-Chloro-3-[1-[4-(6-acetylaminoindan-1-yl)butan-1-yl]-1,2,3,6-tetrahydropyridin-4-yl]-1H-indole] | 125 to 128 °C | – | –
COc1cc2c(cc1OC)CC(CN1CCC(c3c[nH]c4cc(Cl)ccc34)CC1)C2 | 68 to 79 °C | – | –
C1=C(n2ccc3ccccc32)CCN(CCC2Cc3ccccc3C2)C1 (as salt: oxalate) [Compound 28b, 1-[1-[2-(Indan-2-yl)ethyl]-1,2,3,6-tetrahydropyridin-4-yl]-1H-indole] | 176 to 178 °C | – | –
c1ccc2c(c1)CC(CCN1CCC(n3ccc4ccccc43)CC1)C2 [Compound 29b, 1-[1-[2-(Indan-2-yl)ethyl]piperidin-4-yl]-1H-indole] | 80 to 81 °C | 2.2 nM | –
Clc1ccc2c(C3=CCN(CCC4CCc5ccccc54)CC3)c[nH]c2c1 (centres unmarked) [Compound 8a, 6-Chloro-3-[1-[2-(indan-1-yl)ethyl]-1,2,3,6-tetrahydropyridine-4-yl]-1H-indole] | 181 to 183 °C | 3.5 nM | –
CC(C)Oc1cccc2c1CC(CN1CCC(c3c[nH]c4cc(Cl)ccc34)CC1)C2 (centres unmarked) (as salt: oxalate) | 119 to 126 °C | – | –
Clc1cccc2c(C3CCN(CC4Cc5ccccc5C4)CC3)c[nH]c12 (as salt: oxalate) [Compound 21c, 7-Chloro-3-[1-(indan-2-ylmethyl)piperidin-4-yl]-1H-indole] | 218 to 219 °C | – | –
CC(=O)Nc1ccc2c(c1)CC(CN1CC=C(c3c[nH]c4cc(Cl)ccc34)CC1)C2 (centres unmarked) (as salt: oxalate) | 201 to 203 °C | – | –
CC(=O)N1CC(CCN2CC=C(c3c[nH]c4c(Cl)c(Cl)ccc34)CC2)c2ccccc21 (centres unmarked) [Compound 20g, 3-[1-[2-(1-Acetyl-2,3-dihydro-1H-indol-3-yl)ethyl]-1,2,3,6-tetrahydropyridin-4-yl]-6,7-dichloro-1H-indole] | – | 16 nM | –
CC(=O)N1CC(CCN2CC=C(c3c[nH]c4cc(Cl)ccc34)CC2)c2cc(Br)ccc21 (centres unmarked) [Compound 20e, 3-[1-[2-(1-Acetyl-5-bromo-2,3-dihydro-1H-indol-3-yl)ethyl]-1,2,3,6-tetrahydropyridin-4yl]-6-chloro-1H-indole] | – | – | 21%
N#Cc1ccc2c(c1)C(CN1CC=C(c3c[nH]c4cc(Cl)ccc34)CC1)CC2 (centres unmarked) [Compound 6a, 6-Chloro-3-[1-(6-cyano-1-indanylmethyl)-1,2,3,6-tetrahydropyridin-4-yl]-1H-indole] | – | 6.8 nM | –
Clc1ccc2c(ccn2C2=CCN(CCC3Cc4ccccc4C3)CC2)c1 [Compound 28a, 5-Chloro-1-[1-[2-(indan-2-yl)ethyl]-1,2,3,6-tetrahydropyridin-4-yl]-1H-indole] | – | 160 nM | –
